Key:
[1] = test system: MCF7; assay: cells; settings: Homo sapiens, MCF7, 72 h
Description: Cytotoxicity against human MCF7 cells after 72 hrs by MTT assay

[2] = target: Histone deacetylase 1 (Homo sapiens, UniProt Q13547); assay: Inhibition of HDAC1 (unknown origin)
[3] = test system: HCT-116; assay: cells; settings: Homo sapiens, HCT-116, 72 h
[4] = test system: A549; assay: cells; settings: Homo sapiens, A549, 72 h
Description: Cytotoxicity against human A549 cells after 72 hrs by MTT assay

[5] = AUClast in Sprague-Dawley rat at 25 mg/kg, po; settings: plasma
[6] = Terminal half life in Sprague-Dawley rat at 5 mg/kg, iv; type: ADME, organism-based; set-up: dose 5 mg/kg, route intravenous; settings: in vivo, read-out: beta t1/2 (converted)
[7] = test system: A549; assay: Ratio of MGCD0103 IC50 to compound IC50 for human A549 cells; type: functional
[8] = Tmax in Sprague-Dawley rat at 25 mg/kg, po; type: ADME, organism-based; set-up: dose 25 mg/kg, route oral; settings: in vivo
[9] = test system: MCF7; assay: Ratio of MGCD0103 IC50 to compound IC50 for human MCF7 cells; type: functional
[10] = Oral bioavailability in Sprague-Dawley rat at 25 mg/kg; type: ADME, organism-based; settings: in vivo
[11] = AUC infinity in Sprague-Dawley rat at 25 mg/kg, po; type: ADME, organism-based; set-up: time infinity, dose 25 mg/kg, route oral; settings: plasma
[12] = Terminal half life in Sprague-Dawley rat at 25 mg/kg, po; type: ADME, organism-based; set-up: dose 25 mg/kg, route oral; settings: in vivo, read-out: beta t1/2 (converted)

Chain of Histone deacetylase 1 (Q13547 whole entry): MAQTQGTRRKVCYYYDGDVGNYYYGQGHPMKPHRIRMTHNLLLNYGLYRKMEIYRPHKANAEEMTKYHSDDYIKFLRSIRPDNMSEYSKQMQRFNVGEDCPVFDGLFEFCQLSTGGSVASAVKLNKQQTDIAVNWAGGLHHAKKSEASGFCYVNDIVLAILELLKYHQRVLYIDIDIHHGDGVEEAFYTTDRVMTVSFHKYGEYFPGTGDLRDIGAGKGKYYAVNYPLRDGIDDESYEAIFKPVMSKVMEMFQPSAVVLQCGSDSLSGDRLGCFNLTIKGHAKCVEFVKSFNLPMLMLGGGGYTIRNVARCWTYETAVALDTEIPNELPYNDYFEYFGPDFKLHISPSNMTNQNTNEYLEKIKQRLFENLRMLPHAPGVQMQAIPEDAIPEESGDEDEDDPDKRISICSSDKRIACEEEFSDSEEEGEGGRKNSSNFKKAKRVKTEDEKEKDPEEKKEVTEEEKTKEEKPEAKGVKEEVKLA

SMILES | IC50 [1] [µM] | IC50 [2] [µM] | IC50 [3] [µM] | IC50 [4] [µM] | AUC(0-t) [5] [ng·h/mL] | half-life [6] [h] | Tmax [8] [min] | bioavailability [10] [%] | AUC(0-inf) [11] [ng·h/mL] | half-life [12] [h] | Ratio IC50 [7] | Ratio IC50 [9]
Cc1nc2cnccn2c1-c1ccnc(NCc2ccc(C(=O)Nc3ccccc3N)cc2)n1 | 3.74 | 0.097 | 0.264 | 0.694 |  |  |  |  |  |  |  | 
Cc1nc2ccccn2c1-c1ccnc(NCCc2ccc(C(=O)Nc3ccccc3N)cc2)n1 | 4.12 | 0.131 | 0.304 | 0.851 |  |  |  |  |  |  |  | 
Cc1nc2ccccn2c1-c1ccnc(NCc2ccc(C(=O)Nc3ccccc3N)cc2)n1 | 2.09 | 0.108 | 0.203 | 0.439 |  |  |  |  |  |  |  | 
Cc1nc2ccc(Br)cn2c1-c1ccnc(NCc2ccc(C(=O)Nc3ccccc3N)cc2)n1 | 2.36 | 0.125 | 0.301 | 0.501 |  |  |  |  |  |  |  | 
Cc1nc2ccccn2c1-c1ccnc(NCc2ccc(C(=O)Nc3cc(F)ccc3N)cc2)n1 | 1 | 0.097 | 0.27 | 0.176 |  |  |  |  |  |  |  | 

Now from value to molecule, other results behind:

IC50 [1] [µM] | IC50 [2] [µM] | IC50 [3] [µM] | IC50 [4] [µM] | AUC(0-t) [5] [ng·h/mL] | half-life [6] [h] | Tmax [8] [min] | bioavailability [10] [%] | AUC(0-inf) [11] [ng·h/mL] | half-life [12] [h] | SMILES | Ratio IC50 [7] | Ratio IC50 [9]
2.18 | 0.11 | 0.214 | 0.509 |  |  |  |  |  |  | Nc1ccccc1NC(=O)c1ccc(CNc2nccc(-c3cnc4cnccn34)n2)cc1 |  | 
4.11 | 0.127 | 0.189 | 0.857 |  |  |  |  |  |  | Cc1nc2ncccn2c1-c1ccnc(NCc2ccc(C(=O)Nc3ccccc3N)cc2)n1 |  | 
0.661 | 0.053 | 0.082 | 0.11 | 71900 | 1.73 | 4.98 | 81 | 72300 | 4.58 | Nc1ccccc1NC(=O)c1ccc(CNc2nccc(-c3cnc4ccccn34)n2)cc1 | 11.6 | 7
2.4 | 0.135 | 0.244 | 0.649 |  |  |  |  |  |  | Cc1nc2ccccn2c1-c1ccnc(NCc2ccc(C(=O)Nc3ccc(F)cc3N)cc2)n1 |  | 
0.856 | 0.035 | 0.183 | 0.427 |  |  |  |  |  |  | Nc1ccccc1NC(=O)c1ccc(CNc2nccc(-c3cnc4ncccn34)n2)cc1 |  | 
1.72 | 0.154 | 0.256 | 0.724 |  |  |  |  |  |  | Nc1ccccc1NC(=O)c1ccc(CCNc2nccc(-c3cnc4ncccn34)n2)cc1 |  | 

From ChEMBL document CHEMBL2311294, “Design, synthesis and bioevalution of novel benzamides derivatives as HDAC inhibitors” (Bioorg Med Chem Lett, 2013)
